In patent US6596720B1, “Anti-HIV compositions” (priority 1999, dated 2003):

Experiments:
HIV GUN-1 strain [1] = assay: Antiviral activity against HIV GUN-1 strain in MT-4 cells (fluorescent antibody assay); format: cell-based; settings: HIV GUN-1, MT-4 cells, MOI 0.05, 2 days
Procedure: (§1) Antiviral activity against HIV GUN-1 strain (Jpn. J. Cancer Res., vol. 78, 11-15(1987)) and HIV IIIB strain (Science, vol. 224, 497-500(1984)) in MT-2 cells and MT-4 cells (Nature, vol. 294, 770-771 (1981))
(§2) MT-2 cells and MT-4 cells were transferred to RPMI 1640 medium (supplemented with 10% fetal calf serum (FCS)) at 2×10^5 cells/ml. […] The cells were cultured at 37° C. One hour later, the cells were infected with HIV at multiplicity of infection of 0.05 (MOI=0.05) and cultured at 37° C. for 2 days. Smears of MT-2 cells and MT-4 cells were prepared and assayed for HIV-positive cells by fluorescent antibody assay (Science, vol. 229, 563(1985)). 3′-Azide-3′-deoxythymidine (hereinafter abbreviated as AZT) was used as a positive control.
(§3) The relative infection rate (%), expressed as a percentage, was calculated from the number of HIV-infected cells in the drug-treated group relative to the number of infected cells in the drug-free solution-treated group as a control group by the following equation:
(§4) Relative infection rate (%)=(N1/N2)×100
(§5) in which N1 is the number of HIV-positive cells in the test drug-treated group, and N2 is the number of HIV-positive cells in the control group.

HIV GUN-1 strain [2] = assay: Antiviral activity against HIV GUN-1 strain in MT-2 cells (fluorescent antibody assay); format: cell-based; settings: HIV GUN-1, MT-2 cells, MOI 0.05, 2 days
Procedure: as §1, §2, §3, §4, §5

MT-4 cells = assay: Cytotoxicity against MT-4 cells (trypan blue exclusion); format: cell-based; settings: 2 days, relative to control group
Procedure: (§6) Cytotoxicity Against MT-2 Cells and MT-4 Cells
(§7) MT-2 cells and MT-4 cells were transferred to RPMI 1640 medium (supplemented with 10% FCS) at 2×10^5 cells/ml. […] The cells were cultured at 37° C. Two days later, the trypan blue exclusion test was carried out and the number of living cells in each group was counted.
(§8) Relative survival rate (%), expressed as a percentage, was calculated from the number of living cells in the test drug-treated group relative to the number of living cells in the drug-free solution-treated group as a control group, by the following equation:
(§9) Relative survival rate (%)=(N3/N4)×100
(§10) in which N3 is the number of living cells in the test drug-treated group, and N4 is the number of living cells in the control group.

HIV IIIB strain [3] = assay: Antiviral activity against HIV IIIB strain in MT-2 cells (fluorescent antibody assay); format: cell-based; settings: MOI 0.05, 2 days
Procedure: as §1, §2, §3, §4, §5

MT-2 cells = assay: Cytotoxicity against MT-2 cells (trypan blue exclusion); format: cell-based; settings: 2 days, relative to control group
Procedure: as §6, §7, §8, §9, §10

HIV IIIB strain [4] = assay: Antiviral activity against HIV IIIB strain in MT-4 cells (fluorescent antibody assay); format: cell-based; settings: MOI 0.05, 2 days
Procedure: as §1, §2, §3, §4, §5

HIV GUN-1 strain [5] = assay: Antiviral activity against HIV GUN-1 strain in C8166 cells (syncytia count); format: cell-based; settings: HIV GUN-1, C8166 cells, MOI 0.25, 2 days
Procedure: Antiviral Activity Against HIV GUN-1 Strain in C8166 Cells (Salahuddinn et al., Virology, vol. 129, 51-64(1983))
C8166 cells were transferred to RPMI 1640 medium (supplemented with 10% FCS) at 2×10^5 cells/ml. […] The cells were cultured at 37° C. One hour later, the cells were infected with HIV at multiplicity of infection (MOI) of 0.25 (MOI=0.25) and cultured at 37° C. for 2 days. Then the number of syncytia induced by HIV infection was determined.
Relative infection rate (%), expressed as a percentage, was calculated from the number of HIV-infected cells in the test drug-treated group relative to the number of HIV-infected cells in the drug-free solution-treated group as a control group, by the following equation:
Relative infection rate (%)=(N5/N6)×100
in which N5 is the number of syncytia in the test drug-treated group, and N6 is the number of syncytia in the control group.

Q: With `Cc1cn([C@H]2C[C@H](N=[N+]=[N-])[C@@H](CO)O2)c(=O)[nH]c1=O` [AZT, 3′-Azide-3′-deoxythymidine] as the compound, how does the “Relative infection rate (%)” value (HIV GUN-1 strain [1]; drug 0.001 μg/ml) read?
A: 100%

Q: What about the “Relative infection rate (%)” value (HIV GUN-1 strain [1]; drug 0.01 μg/ml) of the same compound?
A: 40%

Q: What about the “Relative infection rate (%)” value (HIV GUN-1 strain [1]; drug 0.1 μg/ml) of the same compound?
A: 4%

Q: What about the “Relative infection rate (%)” value (HIV GUN-1 strain [1]; drug 1 μg/ml) of the same compound?
A: 0%

Q: What about the “Relative infection rate (%)” value (HIV GUN-1 strain [1]; drug 10 μg/ml) of the same compound?
A: 0%

Q: And the “Relative infection rate (%)” value (HIV GUN-1 strain [1]; drug 100 μg/ml)?
A: 0%

Q: What about the “Relative infection rate (%)” value (HIV GUN-1 strain [1]; drug 1000 μg/ml) of the same compound?
A: 0%

Q: And the “Relative infection rate (%)” value (HIV GUN-1 strain [2]; drug 0.001 μg/ml)?
A: 100%

Q: And the “Relative infection rate (%)” value (HIV GUN-1 strain [2]; drug 0.01 μg/ml)?
A: 30%

Q: And the “Relative infection rate (%)” value (HIV GUN-1 strain [2]; drug 0.1 μg/ml)?
A: 10%

Q: What about the “Relative infection rate (%)” value (HIV GUN-1 strain [2]; drug 1 μg/ml) of the same compound?
A: 0%

Q: And the “Relative infection rate (%)” value (HIV GUN-1 strain [2]; drug 10 μg/ml)?
A: 0%

Q: What about the “Relative infection rate (%)” value (HIV GUN-1 strain [2]; drug 100 μg/ml) of the same compound?
A: 0%

Q: What about the “Relative infection rate (%)” value (HIV GUN-1 strain [2]; drug 1000 μg/ml) of the same compound?
A: 0%

Q: What about the “Relative survival rate (%)” value (MT-4 cells; drug 10 μg/ml) of the same compound?
A: 100%

Q: And the “Relative survival rate (%)” value (MT-4 cells; drug 100 μg/ml)?
A: 100%

Q: What about the “Relative survival rate (%)” value (MT-4 cells; drug 1000 μg/ml) of the same compound?
A: 84%

Q: What about the “Relative infection rate (%)” value (HIV IIIB strain [3]; drug 0.001 μg/ml) of the same compound?
A: 100%

Q: And the “Relative infection rate (%)” value (HIV IIIB strain [3]; drug 0.01 μg/ml)?
A: 20%

Q: And the “Relative infection rate (%)” value (HIV IIIB strain [3]; drug 0.1 μg/ml)?
A: 10%

Q: And the “Relative infection rate (%)” value (HIV IIIB strain [3]; drug 1 μg/ml)?
A: 0%

Q: And the “Relative infection rate (%)” value (HIV IIIB strain [3]; drug 10 μg/ml)?
A: 0%

Q: What about the “Relative infection rate (%)” value (HIV IIIB strain [3]; drug 100 μg/ml) of the same compound?
A: 0%

Q: And the “Relative infection rate (%)” value (HIV IIIB strain [3]; drug 1000 μg/ml)?
A: 0%

Q: What about the “Relative survival rate (%)” value (MT-2 cells; drug 10 μg/ml) of the same compound?
A: 100%

Q: What about the “Relative survival rate (%)” value (MT-2 cells; drug 100 μg/ml) of the same compound?
A: 100%

Q: And the “Relative survival rate (%)” value (MT-2 cells; drug 1000 μg/ml)?
A: 100%

Q: What about the “Relative infection rate (%)” value (HIV IIIB strain [4]; drug 0.001 μg/ml) of the same compound?
A: 100%

Q: What about the “Relative infection rate (%)” value (HIV IIIB strain [4]; drug 0.01 μg/ml) of the same compound?
A: 25%

Q: And the “Relative infection rate (%)” value (HIV IIIB strain [4]; drug 0.1 μg/ml)?
A: 5%

Q: And the “Relative infection rate (%)” value (HIV IIIB strain [4]; drug 1 μg/ml)?
A: 0%

Q: And the “Relative infection rate (%)” value (HIV IIIB strain [4]; drug 10 μg/ml)?
A: 0%

Q: What about the “Relative infection rate (%)” value (HIV IIIB strain [4]; drug 100 μg/ml) of the same compound?
A: 0%

Q: And the “Relative infection rate (%)” value (HIV IIIB strain [4]; drug 1000 μg/ml)?
A: 0%

Q: What does the source list for `Cl.N=C1CCCN1Cc1[nH]c(=O)[nH]c(=O)c1Cl` [Compound 1, 5-Chloro-6-(2-iminopyrrolidin-1-yl)methyl-2,4(1H,3H)-pyrimidinedione Hydrochloride]?
A: Change of the maximum tolerated dose of FTD by compound 1 (SD rats; SD rats, FTD + compound 1 versus FTD alone): approximately tripled; Change of the maximum tolerated dose of FTD by compound 1 (beagle dogs; beagle dogs, FTD + compound 1 versus FTD alone): approximately tripled

Q: Which “Maximum tolerated dose (causing no death, expressed as FTD dose)” value (SD rats; male SD rats, oral, repeated for 14 days, combination molar ratio FTD/compound 1=1/0.5) does the source give for `O=c1[nH]c(=O)n([C@H]2C[C@H](O)[C@@H](CO)O2)cc1C(F)(F)F` [FTD, trifluridine] here?
A: 150 mg/kg

Q: What about the “Infection rate (%)” value (HIV GUN-1 strain [5]; FTD 0.01 μg/ml) of the same compound?
A: 90%

Q: And the “Infection rate (%)” value (HIV GUN-1 strain [5]; FTD 0.1 μg/ml)?
A: 59%

Q: And the “Infection rate (%)” value (HIV GUN-1 strain [5]; FTD 1 μg/ml)?
A: 2%

Q: And the “Infection rate (%)” value (HIV GUN-1 strain [5]; FTD 10 μg/ml)?
A: 0%

Q: What about the “Infection rate (%)” value (HIV GUN-1 strain [5]; FTD 100 μg/ml) of the same compound?
A: 0%

Q: What about the “Infection rate (%)” value (HIV GUN-1 strain [5]; FTD 1000 μg/ml) of the same compound?
A: 0%

Q: What about the “Maximum tolerated dose (causing no death, expressed as FTD dose)” value (beagle dogs; male beagle dogs, oral, repeated for 14 days, combination molar ratio FTD/compound 1=1/0.5) of the same compound?
A: 6 mg/kg
